The values that follow are results of earlier work, collected in patent US20080102081A1, “Preparations and applications for treatment of high cholesterol levels” (priority 2006, published 2008).

The conditions of series [1]: clinical trials, patients at lower dosages.
The conditions of series [2]: denominator of prescription volume.

Take `CC(C)c1c(C(=O)Nc2ccccc2)c(-c2ccccc2)c(-c2ccc(F)cc2)n1CC[C@@H](O)C[C@@H](O)CC(=O)O` [Atorvastatin]: in series [1], the “elevation of hepatic enzyme activity” value is listed as 0.7%.

On to `COCc1c(C(C)C)nc(C(C)C)c(/C=C/[C@@H](O)C[C@@H](O)CC(=O)O)c1-c1ccc(F)cc1` [Cerivastatin], for which the fatal rhabdomyolysis rate in series [2] is 3.16 fatal cases/million prescriptions.
